In article PMC10776687 (Nature Communications, 2024):

Experiments:
Type in all cases: cell-based
[1] = biological target: T1, human serotonin transporter (SERT) (Homo sapiens, UniProt P31645); experiment: [3H]5HT uptake inhibition in HEK293 cells; whole-cell patch clamp (partial substrate, kon/koff)
T1 construct: gene SLC6A4; human WT SERT, N-terminal eYFP fusion, stably expressed in HEK293 cells

[2] = biological target: T1, human serotonin transporter (SERT); experiment: [3H]5HT uptake kinetics (Km/Vmax) in HEK293 cells at the compound's IC50, n = […]
[3] = biological target: T1, human serotonin transporter (SERT); experiment: [3H]5HT uptake inhibition in HEK293 cells; whole-cell patch clamp (almost pure inhibitor)
[4] = biological target: T1, human serotonin transporter (SERT); experiment: [3H]5HT uptake inhibition in HEK293 cells; whole-cell patch clamp (partial substrate, kon/koff); efflux

T1 sequence (P31645 whole entry, the tested form may be a part): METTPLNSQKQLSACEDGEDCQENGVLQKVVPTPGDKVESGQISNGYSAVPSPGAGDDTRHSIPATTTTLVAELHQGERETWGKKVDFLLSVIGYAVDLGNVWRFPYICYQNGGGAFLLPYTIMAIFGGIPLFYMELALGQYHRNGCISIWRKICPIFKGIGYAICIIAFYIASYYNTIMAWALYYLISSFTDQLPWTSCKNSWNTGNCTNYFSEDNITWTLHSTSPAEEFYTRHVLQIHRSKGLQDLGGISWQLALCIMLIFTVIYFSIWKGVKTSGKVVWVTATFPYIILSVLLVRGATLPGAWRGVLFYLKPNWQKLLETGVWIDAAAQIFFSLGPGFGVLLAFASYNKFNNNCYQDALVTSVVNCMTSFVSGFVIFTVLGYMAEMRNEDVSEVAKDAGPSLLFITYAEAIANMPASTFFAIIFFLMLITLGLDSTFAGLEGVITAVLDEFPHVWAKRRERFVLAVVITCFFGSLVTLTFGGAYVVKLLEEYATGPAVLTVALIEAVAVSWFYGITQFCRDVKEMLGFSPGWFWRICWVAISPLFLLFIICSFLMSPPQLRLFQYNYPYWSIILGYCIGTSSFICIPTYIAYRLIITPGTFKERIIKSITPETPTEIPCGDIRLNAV

## NCCCCc1c[nH]c2ccc(O)cc12 [B-5HT, butyl (B)-5HT]
[1]
  IC50: 0.27 µM

## COC(=O)[C@H]1[C@@H](OC(=O)c2ccccc2)C[C@@H]2CC[C@H]1N2C [COC, cocaine]
[2]
  IC50: 4 µM

## CC[C@H]1C[C@@H]2C[C@H]3c4[nH]c5ccc(OC)cc5c4CCN(C2)[C@@H]13 [IBO, ibogaine]
[2]
  IC50: 24 µM

## NCc1c[nH]c2ccc(O)cc12 [M-5HT]
[3]
  IC50: 79.3 µM

## NCCCc1c[nH]c2ccc(O)cc12 [P-5HT, propyl (P)-5HT]
[4]
  IC50: 0.59 µM
